Laboratory results: patent US20220332700A1, “NOVEL APOPTOSIS SIGNAL-REGULATING KINASE 1 INHIBITORS” (MANKIND PHARMA LTD, priority 2019, published 2022)

Columns and labels:
[1] = target: T1, Human ASK1 (Homo sapiens, UniProt Q99683); assay: ASK1 Cell Based Assay (phospho p38 read out in hASK1 transfected HEK293T-AP1 cells); conditions: HEK293T-AP1 cells, 1 mM hydrogen peroxide, phospho p38; read-out: Cell Based Assay IC50
T1 construct: expressed in transfected cells; host or cells: HEK293T-AP1
T1 sequence (Q99683 1-1374): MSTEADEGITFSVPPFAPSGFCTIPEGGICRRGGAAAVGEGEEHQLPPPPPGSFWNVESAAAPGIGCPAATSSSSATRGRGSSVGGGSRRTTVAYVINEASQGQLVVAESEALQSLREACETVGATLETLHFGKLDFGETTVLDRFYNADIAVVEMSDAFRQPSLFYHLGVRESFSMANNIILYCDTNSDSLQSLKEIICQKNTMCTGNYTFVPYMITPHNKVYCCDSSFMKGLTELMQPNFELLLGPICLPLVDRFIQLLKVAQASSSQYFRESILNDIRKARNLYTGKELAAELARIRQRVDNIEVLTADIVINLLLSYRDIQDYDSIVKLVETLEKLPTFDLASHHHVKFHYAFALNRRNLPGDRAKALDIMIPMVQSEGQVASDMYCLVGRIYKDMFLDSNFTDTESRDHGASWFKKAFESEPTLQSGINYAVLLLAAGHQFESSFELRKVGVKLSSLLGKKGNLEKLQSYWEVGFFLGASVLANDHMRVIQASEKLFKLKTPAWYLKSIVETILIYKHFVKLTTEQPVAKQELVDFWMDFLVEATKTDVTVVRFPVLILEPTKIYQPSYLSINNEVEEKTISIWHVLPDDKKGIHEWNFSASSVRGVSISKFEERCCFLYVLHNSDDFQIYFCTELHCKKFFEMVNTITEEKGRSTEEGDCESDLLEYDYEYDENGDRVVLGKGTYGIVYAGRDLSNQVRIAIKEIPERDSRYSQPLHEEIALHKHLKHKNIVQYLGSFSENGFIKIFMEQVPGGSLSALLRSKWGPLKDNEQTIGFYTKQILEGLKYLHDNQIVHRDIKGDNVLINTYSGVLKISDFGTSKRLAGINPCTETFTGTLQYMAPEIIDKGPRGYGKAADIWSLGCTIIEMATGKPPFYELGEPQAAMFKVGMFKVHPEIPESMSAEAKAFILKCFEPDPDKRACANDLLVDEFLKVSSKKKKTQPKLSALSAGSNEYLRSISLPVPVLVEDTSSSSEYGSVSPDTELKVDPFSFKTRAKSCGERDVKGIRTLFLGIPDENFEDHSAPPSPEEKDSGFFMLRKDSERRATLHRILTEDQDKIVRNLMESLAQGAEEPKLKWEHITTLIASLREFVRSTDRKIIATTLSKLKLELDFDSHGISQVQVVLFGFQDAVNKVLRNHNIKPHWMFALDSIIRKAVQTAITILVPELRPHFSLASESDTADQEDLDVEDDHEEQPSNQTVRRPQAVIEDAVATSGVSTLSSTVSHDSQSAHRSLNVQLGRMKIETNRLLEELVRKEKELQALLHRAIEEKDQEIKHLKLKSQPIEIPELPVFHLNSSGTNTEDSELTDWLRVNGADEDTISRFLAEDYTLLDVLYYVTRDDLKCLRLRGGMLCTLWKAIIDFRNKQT
Experimental: HEK293T-AP1 cells were seeded at a density of 20,000 cells per well in a poly-d-lysine coated 96 well microplate. Next day, cells were transfected with hASK1-pcDNA3.1 vector using lipofectamine 3000. After 24 hours of transfection, cells were treated with compounds for 24 hours in assay medium. DMSO was used as a vehicle control with a final DMSO concentration of 0.2%. On 4th day, medium was discarded and cells were activated with 1 mM hydrogen peroxide for 1 hour in the presence of compounds. Cells were lysed for 1 hour with 1× lysis buffer on a shaker at 100 rpm. Sixteen microliters of lysate was collected into a 384 well small volume plate. Phospho p38 levels in the lysate was detected by using CisbioPhospho-p38 MAPK (Thr180/Tyr182) #64P38PEG.Four microliters of phospho p38 antibodies labelled with europium cryptate and d2 acceptor, were added to the lysate and incubated overnight. TR-FRET was measured at an excitation of 335 nm and emission was measured at 615 nm and 665 nm in BMG FLUOstar multimode reader.
Compounds were assessed for ASK1 inhibition based on phospho p38 read out. […] Background control values were susbtracted from vehicle control as well as from compound treated wells.

[2] = target: T2, recombinant ASK1 (Homo sapiens, UniProt Q99683); assay: ASK1 Biochemical Assay (HTRF KinEASE-STK S3); conditions: ATP 100 μM; read-out: Biochemical Assay IC50
T2 construct: purchased Carna Biosciences
Outline: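 Recombinant ASK1 (5 ng) preincubated with compound 1 h at 23 °C in MOPS pH 7 buffer with Mg-acetate, DTT, NP40, glycerol, BSA and 1% DMSO. Inhibition calculated against vehicle after substrate-blank subtraction.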

| IC50 [1] | IC50 [2] | SMILES |
| --- | --- | --- |
| > 100 nM | < 100 nM | CC(C)n1cnnc1-c1cccc(N2CCN(c3ccc(S(=O)(=O)N4CCOCC4)cc3)C2=O)n1 [Example 1073, 1-(6-(4-isopropyl-4H-1,2,4-triazol-3-yl)pyridin-2-yl)-3-(4-(morpholinosulfonyl)phenyl)imidazolidin-2-one] |
| > 100 nM | < 100 nM | CC(C)n1cnnc1-c1cccc(N2CCN(c3ccc(N4CC5(COC5)C4)cc3)C2=O)n1 [Example 1074, 1-(4-(2-oxa-6-azaspiro[3.3]heptan-6-yl)phenyl)-3-(6-(4-isopropyl-4H-1,2,4-triazol-3-yl)pyridin-2-yl)imidazolidin-2-one] |
| > 1000 nM | < 100 nM | CC(C)n1cnnc1-c1cccc(N2CCN(c3ccc(N4CCOCC4)c(F)c3)C2=O)n1 [Example 1075, 1-(3-fluoro-4-morpholinophenyl)-3-(6-(4-isopropyl-4H-1,2,4-triazol-3-yl)pyridin-2-yl)imidazolidin-2-one] |
| > 1000 nM | < 100 nM | CC1CN(c2ccc(N3CCN(c4cccc(-c5nncn5C(C)C)n4)C3=O)cc2)C(=O)CO1 (stereo not drawn) [Example 1076, 4-(4-(3-(6-(4-isopropyl-4H-1,2,4-triazol-3-yl)pyridin-2-yl)-2-oxoimidazolidin-1-yl)phenyl)-6-methylmorpholin-3-one] |
| > 100 nM | < 100 nM | CC(C)n1cnnc1-c1cccc(N2CCN(c3ccc(C(=O)N4CCOCC4)cc3)C2=O)n1 [Example 1077, 1-(6-(4-isopropyl-4H-1,2,4-triazol-3-yl)pyridin-2-yl)-3-(4-(morpholine-4-carbonyl)phenyl)imidazolidin-2-one] |
| > 100 nM | < 100 nM | CC1CN(c2ccc(N3CCN(c4cccc(-c5nncn5C(C)C)n4)C3=O)cc2)CCO1 (stereo not drawn) [Example 1078, 1-(6-(4-isopropyl-4H-1,2,4-triazol-3-yl)pyridin-2-yl)-3-(4-(2-methylmorpholino)phenyl)imidazolidin-2-one] |
| > 1000 nM | < 100 nM | CC(C)n1cnnc1-c1cccc(N2CCN(c3ccc(CN4CCOCC4)cc3)C2=O)n1 [Example 1080, 1-(6-(4-isopropyl-4H-1,2,4-triazol-3-yl)pyridin-2-yl)-3-(4-(morpholinomethyl)phenyl)imidazolidin-2-one] |
| > 100 nM | < 50 nM | CC(C)n1cnnc1-c1cccc(N2CCN(c3ccc(NC4CCOCC4)cc3)C2=O)n1 [Example 1081, 1-(6-(4-isopropyl-4H-1,2,4-triazol-3-yl)pyridin-2-yl)-3-(4-(tetrahydro-2H-pyran-4-ylamino)phenyl)imidazolidin-2-one] |
| > 1000 nM | < 100 nM | CC(C)n1cnnc1-c1cccc(N2CCN(c3ccc(C(O)C(F)(F)F)cc3)C2=O)n1 (stereo not drawn) [Example 1083, 1-(4-(2,2,2-trifluoro-1-hydroxyethyl)phenyl)-3-(6-(4-isopropyl-4H-1,2,4-triazol-3-yl)pyridin-2-yl)imidazolidin-2-one] |
| > 1000 nM | < 100 nM | CC(C)n1cnnc1-c1cccc(N2CCN(c3ccc(C4CCN(S(C)(=O)=O)CC4)cc3)C2=O)n1 [Example 1084, 1-(6-(4-isopropyl-4H-1,2,4-triazol-3-yl)pyridin-2-yl)-3-(4-(1-(methylsulfonyl)piperidin-4-yl)phenyl)imidazolidin-2-one] |
| > 100 nM | < 100 nM | CC(C)n1cnnc1-c1cccc(N2CCN(c3ccc(N4[C@H](C)COC[C@@H]4C)cc3)C2=O)n1 [Example 1085, 1-(6-(4-isopropyl-4H-1,2,4-triazol-3-yl)pyridin-2-yl)-3-(4-((3R,5S)-3,5-dimethylmorpholino)phenyl)imidazolidin-2-one] |
| > 100 nM | < 100 nM | CC(C)n1cnnc1-c1cccc(N2CCN(c3ccc(N4CCC(C#N)CC4)cc3)C2=O)n1 [Example 1087, 1-(4-(3-(6-(4-isopropyl-4H-1,2,4-triazol-3-yl)pyridin-2-yl)-2-oxoimidazolidin-1-yl)phenyl)piperidine-4-carbonitrile] |
| > 1000 nM | < 100 nM | CC(C)NC1CN(c2ccc(N3CCN(c4cccc(-c5nncn5C(C)C)n4)C3=O)cc2)C1 [Example 1088, 1-(6-(4-isopropyl-4H-1,2,4-triazol-3-yl)pyridin-2-yl)-3-(4-(3-(isopropylamino)azetidin-1-yl)phenyl)imidazolidin-2-one] |
| > 1000 nM | < 100 nM | CC(C)n1cnnc1-c1cccc(N2CCN(c3ccc(N4CC(O)C4)cc3)C2=O)n1 [Example 1090, 1-(4-(3-hydroxyazetidin-1-yl)phenyl)-3-(6-(4-isopropyl-4H-1,2,4-triazol-3-yl)pyridin-2-yl)imidazolidin-2-one] |
| > 1000 nM | < 100 nM | CC(C)n1cnnc1-c1cccc(N2CCN(c3ccc(N4CCC(C#N)C4)cc3)C2=O)n1 (stereo not drawn) [Example 1091, 1-(4-(3-(6-(4-isopropyl-4H-1,2,4-triazol-3-yl)pyridin-2-yl)-2-oxoimidazolidin-1-yl)phenyl)pyrrolidine-3-carbonitrile] |
| > 1000 nM | < 100 nM | CC(C)n1cnnc1-c1cccc(N2CCN(c3ccc(N4CCN(C)CC4)cc3)C2=O)n1 [Example 1092, 1-(6-(4-isopropyl-4H-1,2,4-triazol-3-yl)pyridin-2-yl)-3-(4-(4-methylpiperazin-1-yl)phenyl)imidazolidin-2-one] |
| > 100 nM | < 100 nM | CC(C)n1cnnc1-c1cccc(N2CCN(c3ccc(N4CC(C(N)=O)C4)cc3)C2=O)n1 [Example 1093, 1-(4-(3-(6-(4-isopropyl-4H-1,2,4-triazol-3-yl)pyridin-2-yl)-2-oxoimidazolidin-1-yl)phenyl)azetidine-3-carboxamide] |
| > 1000 nM | < 100 nM | CC(C)n1cnnc1-c1cccc(N2CCN(c3ccc(N4CC(NC5CC5)C4)cc3)C2=O)n1 [Example 1094, 1-(4-(3-(cyclopropylamino)azetidin-1-yl)phenyl)-3-(6-(4-isopropyl-4H-1,2,4-triazol-3-yl)pyridin-2-yl)imidazolidin-2-one] |
| > 1000 nM | < 100 nM | CC(C)n1cnnc1-c1cccc(N2CCN(c3ccc(C(=O)N4CC(C#N)C4)cc3)C2=O)n1 [Example 1095, 1-(4-(3-(6-(4-isopropyl-4H-1,2,4-triazol-3-yl)pyridin-2-yl)-2-oxoimidazolidin-1-yl)benzoyl)azetidine-3-carbonitrile] |
| > 100 nM | < 100 nM | CC(C)n1cnnc1-c1cccc(N2CCN(c3ccc(N4CC(F)C4)cc3)C2=O)n1 [Example 1096, 1-(4-(3-fluoroazetidin-1-yl)phenyl)-3-(6-(4-isopropyl-4H-1,2,4-triazol-3-yl)pyridin-2-yl)imidazolidin-2-one] |
| > 1000 nM | < 100 nM | CC(C)n1cnnc1-c1cccc(N2CCN(c3ccc(C(C#N)N4CCOCC4)cc3)C2=O)n1 (stereo not drawn) [Example 1098, 2-(4-(3-(6-(4-isopropyl-4H-1,2,4-triazol-3-yl)pyridin-2-yl)-2-oxoimidazolidin-1-yl)phenyl)-2-morpholinoacetonitrile] |
